# Reference: ChEMBL document CHEMBL5131399, “Broadening antifungal spectrum and improving metabolic stablity based on a scaffold strategy: Design, synthesis, and evaluation of novel 4-phenyl-4,5-dihydrooxazole derivatives as potent fungistatic and fungicidal reagents” (Eur J Med Chem, 2022)
# Tested on: Candida parapsilosis
# Assay: Antifungal activity against Candida parapsilosis GIM2.190 assessed as fungal growth inhibition by NCCLS protocol based method
# Format: functional
# Settings: Lodderomyces parapsilosis
row,SMILES,MIC
1,CCc1ccc(-c2ccc(C3=NC(Cn4ccnc4)(c4ccc(F)cc4)CO3)s2)cc1 (stereo not given),16 µg/mL
2,Fc1cccc(C2(Cn3ccnc3)COC(c3ccc(-c4ccccc4)s3)=N2)c1 (stereo not given),> 64 µg/mL
3,CCc1ccccc1-c1ccc(C2=NC(Cn3ccnc3)(c3ccc(F)cc3)CO2)s1 (stereo not given),> 64 µg/mL
4,Fc1ccc(C2(Cn3ccnc3)COC(c3ccc(-c4cccc(OC(F)(F)F)c4)s3)=N2)cc1 (stereo not given),> 64 µg/mL
5,CCOc1ccc(-c2ccc(C3=NC(Cn4ccnc4)(c4ccc(F)cc4)CO3)s2)cc1 (stereo not given),> 64 µg/mL
6,Fc1ccc(C2(Cn3ccnc3)COC(c3ccc(-c4ccc(OCC(F)(F)F)cc4)s3)=N2)cc1 (stereo not given),> 64 µg/mL
7,COc1cccc(C2(Cn3ccnc3)COC(c3ccc(-c4ccccc4)s3)=N2)c1 (stereo not given),> 64 µg/mL
8,Clc1cccc(C2(Cn3ccnc3)COC(c3ccc(-c4ccccc4)s3)=N2)c1 (stereo not given),4 µg/mL
9,N#Cc1ccc(-c2ccc(C3=NC(Cn4ccnc4)(c4ccc(F)cc4)CO3)s2)cc1 (stereo not given),> 64 µg/mL
10,COc1ccc(-c2ccc(C3=NC(Cn4ccnc4)(c4ccc(F)cc4)CO3)s2)cc1 (stereo not given),> 64 µg/mL

# Tested on: Pichia kudriavzevii
# Assay: Antifungal activity against Candida krusei GIM2.1 assessed as fungal growth inhibition by NCCLS protocol based method
# Format: functional
# Settings: not given
row,SMILES,MIC
1,CCc1ccc(-c2ccc(C3=NC(Cn4ccnc4)(c4ccc(F)cc4)CO3)s2)cc1 (stereo not given),> 64 µg/mL
2,Fc1cccc(C2(Cn3ccnc3)COC(c3ccc(-c4ccccc4)s3)=N2)c1 (stereo not given),> 64 µg/mL
3,CCc1ccccc1-c1ccc(C2=NC(Cn3ccnc3)(c3ccc(F)cc3)CO2)s1 (stereo not given),> 64 µg/mL
4,Fc1ccc(C2(Cn3ccnc3)COC(c3ccc(-c4cccc(OC(F)(F)F)c4)s3)=N2)cc1 (stereo not given),> 64 µg/mL
5,CCOc1ccc(-c2ccc(C3=NC(Cn4ccnc4)(c4ccc(F)cc4)CO3)s2)cc1 (stereo not given),> 64 µg/mL
6,Fc1ccc(C2(Cn3ccnc3)COC(c3ccc(-c4ccc(OCC(F)(F)F)cc4)s3)=N2)cc1 (stereo not given),> 64 µg/mL
7,COc1cccc(C2(Cn3ccnc3)COC(c3ccc(-c4ccccc4)s3)=N2)c1 (stereo not given),> 64 µg/mL
8,Clc1cccc(C2(Cn3ccnc3)COC(c3ccc(-c4ccccc4)s3)=N2)c1 (stereo not given),> 64 µg/mL
9,N#Cc1ccc(-c2ccc(C3=NC(Cn4ccnc4)(c4ccc(F)cc4)CO3)s2)cc1 (stereo not given),> 64 µg/mL
10,COc1ccc(-c2ccc(C3=NC(Cn4ccnc4)(c4ccc(F)cc4)CO3)s2)cc1 (stereo not given),> 64 µg/mL

# Tested on: Candida albicans
# Assay: Antifungal activity against Candida albicans CPCC400616 assessed as fungal growth inhibition by NCCLS protocol based method
# Format: functional
# Settings: not given
row,SMILES,MIC
1,CCc1ccc(-c2ccc(C3=NC(Cn4ccnc4)(c4ccc(F)cc4)CO3)s2)cc1 (stereo not given),4 µg/mL
2,Fc1cccc(C2(Cn3ccnc3)COC(c3ccc(-c4ccccc4)s3)=N2)c1 (stereo not given),> 64 µg/mL
3,CCc1ccccc1-c1ccc(C2=NC(Cn3ccnc3)(c3ccc(F)cc3)CO2)s1 (stereo not given),> 64 µg/mL
4,Fc1ccc(C2(Cn3ccnc3)COC(c3ccc(-c4cccc(OC(F)(F)F)c4)s3)=N2)cc1 (stereo not given),> 64 µg/mL
5,CCOc1ccc(-c2ccc(C3=NC(Cn4ccnc4)(c4ccc(F)cc4)CO3)s2)cc1 (stereo not given),2 µg/mL
6,Fc1ccc(C2(Cn3ccnc3)COC(c3ccc(-c4ccc(OCC(F)(F)F)cc4)s3)=N2)cc1 (stereo not given),> 64 µg/mL
7,COc1cccc(C2(Cn3ccnc3)COC(c3ccc(-c4ccccc4)s3)=N2)c1 (stereo not given),1 µg/mL
8,Clc1cccc(C2(Cn3ccnc3)COC(c3ccc(-c4ccccc4)s3)=N2)c1 (stereo not given),> 64 µg/mL
9,N#Cc1ccc(-c2ccc(C3=NC(Cn4ccnc4)(c4ccc(F)cc4)CO3)s2)cc1 (stereo not given),1 µg/mL
10,COc1ccc(-c2ccc(C3=NC(Cn4ccnc4)(c4ccc(F)cc4)CO3)s2)cc1 (stereo not given),> 64 µg/mL

# Tested on: Candida albicans
# Assay: Antifungal activity against Candida albicans ATCC SC5314 assessed as fungal growth inhibition by NCCLS protocol based method
# Format: functional
# Settings: not given
row,SMILES,MIC
1,CCc1ccc(-c2ccc(C3=NC(Cn4ccnc4)(c4ccc(F)cc4)CO3)s2)cc1 (stereo not given),4 µg/mL
2,Fc1cccc(C2(Cn3ccnc3)COC(c3ccc(-c4ccccc4)s3)=N2)c1 (stereo not given),> 64 µg/mL
3,CCc1ccccc1-c1ccc(C2=NC(Cn3ccnc3)(c3ccc(F)cc3)CO2)s1 (stereo not given),> 64 µg/mL
4,Fc1ccc(C2(Cn3ccnc3)COC(c3ccc(-c4cccc(OC(F)(F)F)c4)s3)=N2)cc1 (stereo not given),> 64 µg/mL
5,CCOc1ccc(-c2ccc(C3=NC(Cn4ccnc4)(c4ccc(F)cc4)CO3)s2)cc1 (stereo not given),0.5 µg/mL
6,Fc1ccc(C2(Cn3ccnc3)COC(c3ccc(-c4ccc(OCC(F)(F)F)cc4)s3)=N2)cc1 (stereo not given),> 64 µg/mL
7,COc1cccc(C2(Cn3ccnc3)COC(c3ccc(-c4ccccc4)s3)=N2)c1 (stereo not given),0.125 µg/mL
8,Clc1cccc(C2(Cn3ccnc3)COC(c3ccc(-c4ccccc4)s3)=N2)c1 (stereo not given),> 64 µg/mL
9,N#Cc1ccc(-c2ccc(C3=NC(Cn4ccnc4)(c4ccc(F)cc4)CO3)s2)cc1 (stereo not given),0.125 µg/mL
10,COc1ccc(-c2ccc(C3=NC(Cn4ccnc4)(c4ccc(F)cc4)CO3)s2)cc1 (stereo not given),> 64 µg/mL

# Tested on: Cryptococcus neoformans
# Assay: Antifungal activity against Cryptococcus neoformans CGMCC 2.3161 assessed as fungal growth inhibition by NCCLS protocol based method
# Format: functional
# Settings: not given
row,SMILES,MIC
1,CCc1ccc(-c2ccc(C3=NC(Cn4ccnc4)(c4ccc(F)cc4)CO3)s2)cc1 (stereo not given),> 64 µg/mL
2,Fc1cccc(C2(Cn3ccnc3)COC(c3ccc(-c4ccccc4)s3)=N2)c1 (stereo not given),> 64 µg/mL
3,CCc1ccccc1-c1ccc(C2=NC(Cn3ccnc3)(c3ccc(F)cc3)CO2)s1 (stereo not given),> 64 µg/mL
4,Fc1ccc(C2(Cn3ccnc3)COC(c3ccc(-c4cccc(OC(F)(F)F)c4)s3)=N2)cc1 (stereo not given),> 64 µg/mL
5,CCOc1ccc(-c2ccc(C3=NC(Cn4ccnc4)(c4ccc(F)cc4)CO3)s2)cc1 (stereo not given),> 64 µg/mL
6,Fc1ccc(C2(Cn3ccnc3)COC(c3ccc(-c4ccc(OCC(F)(F)F)cc4)s3)=N2)cc1 (stereo not given),> 64 µg/mL
7,COc1cccc(C2(Cn3ccnc3)COC(c3ccc(-c4ccccc4)s3)=N2)c1 (stereo not given),> 64 µg/mL
8,Clc1cccc(C2(Cn3ccnc3)COC(c3ccc(-c4ccccc4)s3)=N2)c1 (stereo not given),2 µg/mL
9,N#Cc1ccc(-c2ccc(C3=NC(Cn4ccnc4)(c4ccc(F)cc4)CO3)s2)cc1 (stereo not given),> 64 µg/mL
10,COc1ccc(-c2ccc(C3=NC(Cn4ccnc4)(c4ccc(F)cc4)CO3)s2)cc1 (stereo not given),> 64 µg/mL

# Tested on: Candida tropicalis
# Assay: Antifungal activity against Candida tropicalis CGMCC 2.3739 assessed as fungal growth inhibition by NCCLS protocol based method
# Format: functional
# Settings: not given
row,SMILES,MIC
1,CCc1ccc(-c2ccc(C3=NC(Cn4ccnc4)(c4ccc(F)cc4)CO3)s2)cc1 (stereo not given),> 64 µg/mL
2,Fc1cccc(C2(Cn3ccnc3)COC(c3ccc(-c4ccccc4)s3)=N2)c1 (stereo not given),8 µg/mL
3,CCc1ccccc1-c1ccc(C2=NC(Cn3ccnc3)(c3ccc(F)cc3)CO2)s1 (stereo not given),> 64 µg/mL
4,Fc1ccc(C2(Cn3ccnc3)COC(c3ccc(-c4cccc(OC(F)(F)F)c4)s3)=N2)cc1 (stereo not given),> 64 µg/mL
5,CCOc1ccc(-c2ccc(C3=NC(Cn4ccnc4)(c4ccc(F)cc4)CO3)s2)cc1 (stereo not given),1 µg/mL
6,Fc1ccc(C2(Cn3ccnc3)COC(c3ccc(-c4ccc(OCC(F)(F)F)cc4)s3)=N2)cc1 (stereo not given),> 64 µg/mL
7,COc1cccc(C2(Cn3ccnc3)COC(c3ccc(-c4ccccc4)s3)=N2)c1 (stereo not given),1 µg/mL
8,Clc1cccc(C2(Cn3ccnc3)COC(c3ccc(-c4ccccc4)s3)=N2)c1 (stereo not given),> 64 µg/mL
9,N#Cc1ccc(-c2ccc(C3=NC(Cn4ccnc4)(c4ccc(F)cc4)CO3)s2)cc1 (stereo not given),16 µg/mL
10,COc1ccc(-c2ccc(C3=NC(Cn4ccnc4)(c4ccc(F)cc4)CO3)s2)cc1 (stereo not given),> 64 µg/mL

# Tested on: Aspergillus fumigatus
# Assay: Antifungal activity against Aspergillus fumigatus CGMCC3.7795 assessed as fungal growth inhibition by NCCLS protocol based method
# Format: functional
# Settings: not given
row,SMILES,MIC
1,CCc1ccc(-c2ccc(C3=NC(Cn4ccnc4)(c4ccc(F)cc4)CO3)s2)cc1 (stereo not given),4 µg/mL
2,Fc1cccc(C2(Cn3ccnc3)COC(c3ccc(-c4ccccc4)s3)=N2)c1 (stereo not given),> 64 µg/mL
3,CCc1ccccc1-c1ccc(C2=NC(Cn3ccnc3)(c3ccc(F)cc3)CO2)s1 (stereo not given),> 64 µg/mL
4,Fc1ccc(C2(Cn3ccnc3)COC(c3ccc(-c4cccc(OC(F)(F)F)c4)s3)=N2)cc1 (stereo not given),> 64 µg/mL
5,CCOc1ccc(-c2ccc(C3=NC(Cn4ccnc4)(c4ccc(F)cc4)CO3)s2)cc1 (stereo not given),8 µg/mL
6,Fc1ccc(C2(Cn3ccnc3)COC(c3ccc(-c4ccc(OCC(F)(F)F)cc4)s3)=N2)cc1 (stereo not given),> 64 µg/mL
7,COc1cccc(C2(Cn3ccnc3)COC(c3ccc(-c4ccccc4)s3)=N2)c1 (stereo not given),> 64 µg/mL
8,Clc1cccc(C2(Cn3ccnc3)COC(c3ccc(-c4ccccc4)s3)=N2)c1 (stereo not given),> 64 µg/mL
9,N#Cc1ccc(-c2ccc(C3=NC(Cn4ccnc4)(c4ccc(F)cc4)CO3)s2)cc1 (stereo not given),16 µg/mL
10,COc1ccc(-c2ccc(C3=NC(Cn4ccnc4)(c4ccc(F)cc4)CO3)s2)cc1 (stereo not given),> 64 µg/mL

# Tested on: Nakaseomyces glabratus
# Assay: Antifungal activity against Candida glabrata clinical isolate assessed as fungal growth inhibition by NCCLS protocol based method
# Format: functional
# Settings: not given
row,SMILES,MIC
1,CCc1ccc(-c2ccc(C3=NC(Cn4ccnc4)(c4ccc(F)cc4)CO3)s2)cc1 (stereo not given),64 µg/mL
2,Fc1cccc(C2(Cn3ccnc3)COC(c3ccc(-c4ccccc4)s3)=N2)c1 (stereo not given),> 64 µg/mL
3,CCc1ccccc1-c1ccc(C2=NC(Cn3ccnc3)(c3ccc(F)cc3)CO2)s1 (stereo not given),> 64 µg/mL
4,Fc1ccc(C2(Cn3ccnc3)COC(c3ccc(-c4cccc(OC(F)(F)F)c4)s3)=N2)cc1 (stereo not given),> 64 µg/mL
5,CCOc1ccc(-c2ccc(C3=NC(Cn4ccnc4)(c4ccc(F)cc4)CO3)s2)cc1 (stereo not given),32 µg/mL
6,Fc1ccc(C2(Cn3ccnc3)COC(c3ccc(-c4ccc(OCC(F)(F)F)cc4)s3)=N2)cc1 (stereo not given),> 64 µg/mL
7,COc1cccc(C2(Cn3ccnc3)COC(c3ccc(-c4ccccc4)s3)=N2)c1 (stereo not given),> 64 µg/mL
8,Clc1cccc(C2(Cn3ccnc3)COC(c3ccc(-c4ccccc4)s3)=N2)c1 (stereo not given),> 64 µg/mL
9,N#Cc1ccc(-c2ccc(C3=NC(Cn4ccnc4)(c4ccc(F)cc4)CO3)s2)cc1 (stereo not given),> 64 µg/mL
10,COc1ccc(-c2ccc(C3=NC(Cn4ccnc4)(c4ccc(F)cc4)CO3)s2)cc1 (stereo not given),> 64 µg/mL
